Measured values from patent US20090305995A1, “AGONISTS AND ANTAGONISTS OF THE SOMATOSTATIN RECEPTOR” (Novartis AG, priority 2004, published 2009).
Converted amounts (≈) assume the structure as drawn. Where two headings read alike, the source gives them in different places.

Columns and labels:
[1] = high throughput solubility (HT-Solubility); format: physicochemical; settings: for water solubility (in words): see FIG. 10
[2] = logP octanol by pH-metric titration (GLpKa instrument); format: physicochemical; settings: read-out: log P/D logP octanol
Experimental: In order to have a real measure of log P values for highly polar compounds, respective values for compounds 1 to 3 (C-terminal L-β-homothreonine amides) and compounds 7 to 9 (C-terminal 4-amino-5-methyl-dihydro-fuan-2-ones) are measured by employing pH-metric titration technology using a GLpKa instrument (Box et al. 2003). The high polarity of these two mixed α/β^3-tetrapeptides can be controlled by N-terminal introduction of lipophilization tags. The conjugation with fatty acid analogs leads to compounds with druglike polarity (5, 6, 10, 11, 12, 13, 14, 15, 16, 17, 18 and 26).

[3] = high throughput permeability (HT-Permeability, log Pe); format: physicochemical; settings: PAMPA, Pe in cm/s
[4] = HT-logP o/w, high throughput assay based on artificial liquid membrane permeability; format: physicochemical
Excerpt: To be absorbed and transported by passive diffusion, drugs must be sufficiently lipophilic to penetrate the lipid cores of membranes, but not too lipophilic that they get retained and accumulated there. The lipophilictity of a compound is expressed by the octanol/water partition coefficient or distribution coefficient. A first approximation of substance polarity can either be given by computer assisted calculations giving Clog P values or by measurement of the partition coefficients in high-throughput assays (HT-log P o/w) (Faller et al., 2004; Wohnsland et al., 2001).
Octanol/water partition coefficients are measured in a high throughput assay based on artificial liquid membrane permeability. […] Still many approaches to calculate log P values are limited due to a lack of parameterization of certain fragments and fail with increasing molecular weight which implicates higher structural complexity. Similar problems and failures are observed in chromatographic determinations of log P: Peptides might undergo structural changes driven by interactions with the stationary phase. Decisive interactions between the stationary phase and the defolded analytes are therefore also based on the linear peptide sequence. For this reason measured HT-log P o/w values based on chromatographic assays employing stationary phases may lead to erroneous results.

hsst4 receptor = target: T1, hsst4 receptor (Homo sapiens, UniProt P31391); assay: radioligand-binding displacement assay ([125I]LTT-SRIF28), receptor expressed in CCL39 cells; settings: for Kd: hsst4, [125I]LTT-SRIF28 displacement
T1 construct: expressed in transfected cells; host or cells: Chinese hamster lung fibroblast (CCL39) cells
T1 sequence (P31391 whole entry): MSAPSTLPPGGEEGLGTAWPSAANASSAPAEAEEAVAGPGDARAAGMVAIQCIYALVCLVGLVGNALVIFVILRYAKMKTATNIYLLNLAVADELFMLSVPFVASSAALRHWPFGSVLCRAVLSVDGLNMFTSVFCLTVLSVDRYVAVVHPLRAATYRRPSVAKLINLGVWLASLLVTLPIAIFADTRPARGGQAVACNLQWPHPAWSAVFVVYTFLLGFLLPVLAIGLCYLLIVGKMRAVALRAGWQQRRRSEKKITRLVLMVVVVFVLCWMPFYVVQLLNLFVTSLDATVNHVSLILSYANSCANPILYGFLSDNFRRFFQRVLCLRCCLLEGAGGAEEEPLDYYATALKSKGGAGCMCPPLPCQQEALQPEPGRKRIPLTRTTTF
Experimental: (§1) The generated peptides are tested for their affinity to bind to human SRIF receptors expressed in Chinese hamster lung fibroblast (CCL39) cells. This is achieved in radioligand-binding assays, a displacement experiment in which the concentration of a substance is measured which is necessary for the replacement of 50% of a specifically bound radioligand ([^125I]LTT-SRIF28). Specific binding is measured as the total binding of receptor-specific radioligand minus the amount of radioligand bound in presence of unmarked SRIF-14 (100 nM, nonspecific binding).

human SRIF receptors = assay: radioligand-binding displacement assay on the human SRIF receptor family (selectivity); settings: hsst4 versus other hsst receptors
Experimental: as §1

[5] = pH 8, pH 8.0, read-out: HT-Permeability logPe pH 8.0 (converted)
[6] = octanol/water; read-out: HT LogP ohw
[7] = pH 1, pH 1.0, read-out: HT-Solubility pH 1.0
[8] = pH 6.8, pH 6.8, read-out: HT-Solubility pH 6.8
[9] = pH 4, pH 4.0, read-out: HT-Permeability logPe pH 4.0 (converted)
[10] = octanol/water, read-out: HT LogP ohw
[11] = pH 6.8, pH 6.8, read-out: HT-Permeability logPe pH 6.8 (converted)

Row | Structure (SMILES) | HT-Solubility pH 1.0 [1] | HT-Solubility pH 6.8 [1] | logP [2] | Papp [3, 5] | logP [4, 6] | Kd (hsst4 receptor) | solubility [1, 7] | solubility [1, 8] | Papp [3, 9] | logP [4, 10] | water solubility (in words) [1] | binding affinity to hsst4 (in words) (hsst4 receptor) | Papp [3, 11] | HT LogP ohw ([4]; octanol/water) | selectivity amongst other hsst receptors (factor) (human SRIF receptors)
1 | CC(=O)N[C@H](CC(=O)N[C@H](Cc1c[nH]c2ccccc12)C(=O)N[C@@H](CCCCN)CC(=O)N[C@H](CC(N)=O)[C@@H](C)O)Cc1ccccc1 [Compound 3] | 0.0133 g 1-1 | 0.0133 g 1-1 | 0.4 | – | – | – | – | – | – | – | – | – | – | – | –
2 | CC(=O)N[C@H](CC(=O)N[C@H](Cc1c[nH]c2ccccc12)C(=O)N[C@@H](CCCCN)CC(=O)N[C@@H]1CC(=O)O[C@@H]1C)Cc1ccccc1 [Compound 8] | – | – | 0.4 | 2 ×10⁻⁶ cm/s | 3.4 | – | – | – | – | – | – | – | – | – | –
3 | C[C@H]1OC(=O)C[C@H]1NC(=O)C[C@H](CCCCN)NC(=O)[C@@H](Cc1cn(C)c2ccccc12)NC(=O)C[C@H](Cc1ccccc1)NC(=O)CCc1ccccc1 [Compound 19, Dihydrocinnemoyl-(S)-β^3-HPhe-(R)-1-Me-Trp-(S)-β^3-HLys-(R)-4-amino-(R)-5-methyl-dihydro-furan-2-one] | – | – | – | – | – | 0.708 µM | 15 µg/mL (≈ 20 µM) | 15 µg/mL (≈ 20 µM) | 0.1 ×10⁻⁶ cm/s | 3.7 | – | – | – | – | –
4 | C[C@H]1OC(=O)C[C@H]1NC(=O)C[C@H](CCCCN)NC(=O)[C@@H](Cc1cn(C)c2ccccc12)NC(=O)C[C@H](Cc1ccccc1)NC(=O)C12CC3CC(CC(C3)C1)C2 [Compound 20, Adamantoyl-(S)-β^3-HPhe-(R)-1-Me-Trp-(S)-β^3-HLys-(R)-4-amino-(R)-5-methyl-dihydro-furan-2-one] | – | – | – | – | – | 2.95 µM | 15.6 µg/mL (≈ 20 µM) | 15.6 µg/mL (≈ 20 µM) | 0.1 ×10⁻⁶ cm/s | 2.9 | – | – | – | – | –
5 | CC(=O)N[C@H](CC(=O)N[C@H](Cc1cn(C)c2ccccc12)C(=O)N[C@@H](CCCCN)CC(=O)N[C@@H]1CC(=O)O[C@@H]1C)Cc1ccccc1 [Compound 21, Ac—(S)-β^3-HPhe-(R)-1-Me-Trp-(S)-β^3-HLys-(R)-4-amino-(R)-5-methyl-dihydro-furan-2-one] | – | – | – | – | – | 0.708 to 2.95 µM | 13.2 µg/mL (≈ 20 µM) | 13.2 µg/mL (≈ 20 µM) | 0.1 ×10⁻⁶ cm/s | 3.3 | – | – | – | – | –
6 | CCN(CC)C(=O)C[C@@H](NC(=O)C[C@H](CCCCN)NC(=O)[C@@H](Cc1c[nH]c2ccccc12)NC(=O)C[C@H](Cc1ccccc1)NC(C)=O)C(C)C [Compound 22, Ac—(S)-β^3-HPhe-(R)-Trp-(S)-β^3-HLys-(R)-β^3-Leu-diethyl-amide] | – | – | – | – | – | 0.166 µM | 14.4 µg/mL (≈ 20.1 µM) | 14.4 µg/mL (≈ 20.1 µM) | 0.1 ×10⁻⁶ cm/s | 2.3 | – | – | – | – | –
7 | CC(=O)N[C@H](CC(=O)N[C@H](Cc1c[nH]c2ccccc12)C(=O)N[C@@H](CCCCN)CC(=O)N[C@H](CC(=O)N(C)CCc1ccccc1)C(C)C)Cc1ccccc1 [Compound 25, Ac—(S)-β^3-HPhe-(R)-Trp-(S)-β^3-HLys-(R)-β^3-Leu-methyl-phenethyl-amide] | – | – | – | – | – | 0.115 µM | 78 µg/mL (≈ 100 µM) | 15.6 µg/mL (≈ 20 µM) | 0.1 ×10⁻⁶ cm/s | 3.3 | – | – | – | – | –
8 | NCCCC[C@@H](CC(=O)NC1CCCC1)NC(=O)[C@@H](Cc1c[nH]c2ccccc12)NC(=O)C[C@H](Cc1ccccc1)NC(=O)CCc1ccccc1 [Compound 32, Dihydrocinnemoyl-(S)-β^3-HPhe-(R)-Trp-(S)-β^3-HLys-cyclopentyl-amide] | – | – | – | – | – | 0.417 µM | 70.7 µg/mL (≈ 100 µM) | 14.1 µg/mL (≈ 19.9 µM) | 0.1 ×10⁻⁶ cm/s | 4 | – | – | – | – | –
9 | CCCCCNC(=O)C[C@H](CCCCN)NC(=O)[C@@H](Cc1c[nH]c2ccccc12)NC(=O)C[C@H](Cc1ccccc1)NC(C)=O [Compound 44] | – | 0.0309 g 1-1 | – | 25.1 ×10⁻⁶ cm/s | – | 0.01 µM | 124 µg/mL (≈ 200 µM) | – | 6.31 ×10⁻⁶ cm/s | 3.3 | medium to good | – | – | – | –
10 | CCCCCN(C)C(=O)C[C@H](CCCCN)NC(=O)[C@@H](Cc1c[nH]c2ccccc12)N(Cc1ccccc1)C(=O)C[C@H](Cc1ccccc1)NC(=O)CC [Compound 66, Propionyl-(S)-β^3-HPhe-(R)—N-Benzyl-Trp-(S)-β^3-HLys-methyl-pentyl-amide] | – | – | – | 3.98 ×10⁻⁶ cm/s | – | 0.014 µM | 147 µg/mL (≈ 200 µM) | 14.7 µg/mL (≈ 19.9 µM) | – | 5.5 | does not allow for good water solubilities | – | 7.94 ×10⁻⁶ cm/s | – | –
11 | CCCCCN(C)C(=O)C[C@H](CCCCN)NC(=O)[C@@H](Cc1c[nH]c2ccccc12)N(Cc1ccccc1)C(=O)C[C@H](Cc1ccccc1)NC(=O)CC [Compound 67] | – | – | – | – | 4.4 | – | – | – | – | – | does not allow for good water solubilities | – | – | – | 100

Second part, the compound after the results:

Row | HT-Solubility pH 1.0 [1] | HT-Solubility pH 6.8 [1] | logP [2] | Papp [3, 5] | logP [4, 6] | Kd (hsst4 receptor) | solubility [1, 7] | solubility [1, 8] | Papp [3, 9] | logP [4, 10] | water solubility (in words) [1] | binding affinity to hsst4 (in words) (hsst4 receptor) | Papp [3, 11] | HT LogP ohw ([4]; octanol/water) | selectivity amongst other hsst receptors (factor) (human SRIF receptors) | Structure (SMILES)
12 | – | – | – | – | – | – | 129 µg/mL (≈ 200 µM) | 129 µg/mL (≈ 200 µM) | 1 ×10⁻⁶ cm/s | 3.3 | – | lower binding affinities | – | – | – | CCC(=O)N(C)[C@H](CC(=O)N[C@H](Cc1c[nH]c2ccccc12)C(=O)N[C@@H](CCCCN)CC(=O)NC1CCCC1)Cc1ccccc1 [Compound 46, Propionyl-N-Me-(S)-β^3-HPhe-(R)-Trp-(S)-β^3-HLys-cyclopentyl-amide]
13 | – | – | – | 3.98 ×10⁻⁶ cm/s | – | 0.007 µM | 129 µg/mL (≈ 200 µM) | 129 µg/mL (≈ 200 µM) | 3.16 ×10⁻⁶ cm/s | 3.4 | highest solubility values | – | 1.58 ×10⁻⁶ cm/s | – | – | CCCCCN(C)C(=O)C[C@H](CCCCN)NC(=O)[C@@H](Cc1c[nH]c2ccccc12)NC(=O)C[C@H](Cc1ccccc1)NC(=O)CC [Compound 48]
14 | 0.1294 g 1-1 | 0.1294 g 1-1 | 2.8 | – | – | – | – | – | – | – | highest solubility values | – | – | 3.7 | – | CCCCCN(C)C(=O)C[C@H](CCCCN)NC(=O)[C@@H](Cc1c[nH]c2ccccc12)NC(=O)C[C@H](Cc1ccccc1)NC(=O)CC [Compound 49, Propionyl-(S)-β^3-HPhe-(R)-Trp-(S)-β^3-HLys-methyl-pentyl-amide]
15 | – | – | – | 1 ×10⁻⁶ cm/s | – | 0.016 µM | 121 µg/mL (≈ 200 µM) | 121 µg/mL (≈ 200 µM) | 6.31 ×10⁻⁶ cm/s | 3.1 | medium to good | – | 1.58 ×10⁻⁶ cm/s | – | – | CCCCNC(=O)C[C@H](CCCCN)NC(=O)[C@@H](Cc1c[nH]c2ccccc12)NC(=O)C[C@H](Cc1ccccc1)NC(C)=O [Compound 52, Ace-(S)-β^3-HPhe-(R)-Trp-(S)-β^3-HLys-butyl-amide]
16 | – | – | 3.1 | 2 ×10⁻⁶ cm/s | – | – | – | – | – | – | highest solubility values | – | 6.31 ×10⁻⁶ cm/s | – | – | CCCCCN(C)C(=O)C[C@H](CCCCN)NC(=O)[C@@H](Cc1c[nH]c2ccccc12)N(C)C(=O)C[C@H](Cc1ccccc1)NC(=O)CC [Compound 64]
17 | – | – | – | 5.01 ×10⁻⁶ cm/s | – | 0.057 µM | 135 µg/mL (≈ 200 µM) | 135 µg/mL (≈ 200 µM) | 12.6 ×10⁻⁶ cm/s | 4.1 | highest solubility values | – | 2.51 ×10⁻⁶ cm/s | – | – | CCCCCCN(C)C(=O)C[C@H](CCCCN)NC(=O)[C@@H](Cc1c[nH]c2ccccc12)N(C)C(=O)C[C@H](Cc1ccccc1)NC(=O)CC [Compound 65, Propionyl-(S)-β^3-HPhe-(R)—N-Me-Trp-(S)-β^3-HLys-methyl-hexyl-amide]
18 | – | – | – | 12.6 ×10⁻⁶ cm/s | – | 0.035 µM | 129 µg/mL (≈ 200 µM) | 129 µg/mL (≈ 200 µM) | 5.01 ×10⁻⁶ cm/s | 3.3 | highest solubility values | – | 3.98 ×10⁻⁶ cm/s | – | – | CCCCCNC(=O)C[C@H](CCCCN)NC(=O)[C@@H](Cc1c[nH]c2ccccc12)N(C)C(=O)C[C@H](Cc1ccccc1)NC(=O)CC [Compound 70, Propionyl-(S)-β^3-HPhe-(R)—N-Me-Trp-(S)-β^3-HLys-pentyl-amide]
19 | 0.1041 g 1-1 | 0.1041 g 1-1 | 1.5 | 6.31 ×10⁻⁶ cm/s | – | – | – | – | 5.01 ×10⁻⁶ cm/s | – | – | – | 7.94 ×10⁻⁶ cm/s | – | – | CN(C(=O)C[C@@H](N)Cc1ccccc1)[C@H](Cc1c[nH]c2ccccc12)C(=O)N[C@@H](CCCCN)CC(N)=O [Compound 72, (S)-β^3-HPhe-(R)—N-Me-Trp-(S)-β^3-HLys-NH2]
